Measured values taken from patent publication US20230346827A1 (priority 2020, published 2023).

Legend:
Mouse motor neurons = test: Gene expression array and pathway analysis, motor neurons, LMW-DS 0.01 mg/ml 48 h; format: cell-based; conditions: for number of genes: abolished nutrient effect / number of genes: new effect induced by LMW-DS / number of genes: total / number of genes: enhanced response to nutrients / number of genes: not different from control / Activation z-score / Predicted activation state relative D2 control: motor neurons; for Activation z-score / Predicted activation state relative D2 control: D0 to LMW-DS treatment
Protocol: For each cell line, n=8 × 25 cm^2 culture flasks were set up. Two flasks were harvested for each cell type on the day of treatment (24 hours after seeding). This represents the Day0 time point. From the remaining flasks, three flasks were treated with Control Medium and three were treated with Culture Medium (CM) containing LMW-DS to give a final concentration of 0.01 mg/ml. Cells from the treated flasks were collected after 48 hours. Therefore the collected data represent (a) untreated cells (Day0 Controls and Day2 Controls) and (b) cells treated with LMW-DS (ILB®, Tikomed AB, Viken, Sweden, WO 2016/076780) for 48 hours (Day2 LMW-DS treated).
The culture medium was prepared according to Table 28.
Medium (see Table 28) was pre-warmed to 37° C. Cells were thawed in a 37° C. water bath for no longer than 2 min. 9 ml of media was gently added drop-wise. The cell suspension was mixed by inverting the tube carefully twice. The cells were counted with a Cellometer. The cells were centrifuged for 5 minutes at 200 x g. Supernatant was removed (to the last 0.5 ml) and cells were gently re-suspended by trituration. The cells from the 8 vials were mixed and distributed equally into the previously coated 25 cm^2 flasks (n=8). Cells were incubated at 37° C. with 5% CO2 for 24 hours before treatment.
LMW-DS was provided at a stock concentration of 20 mg/ml and was kept in a temperature monitored refrigerator at 4° C. A fresh 100x LMW-DS stock (1.0 mg/ml) was prepared in sterile DMEM-F12. The concentrated drug stock was sterile filtered and added to the respective culture media (19.6 ml CM and 0.4 ml LMW-DS stock solution). The Control was made using 19.6 ml CM and 0.4 ml of DMEM-F12. LMW-DS and CM were added to the respective flasks (5 ml each) to reach the 0.01 mg/ml concentration of LMW-DS in each dish with a total of 10 ml CM each.
CM was aspirated into a clean and labelled 15 ml Falcon tube. The flasks (without culture medium) were placed into the -80° C. freezer for 30 minutes. The CM in the Falcon tubes was spun at 3000 x g for 5 minutes. Supernatant was removed and the small pellet was re-suspended in 2.5 ml Trizol:Water (4:1) solution at room temperature (RT, ~22° C.).
Two aliquots of 1 ml lysate were removed from each sample and 200 µl of chloroform was added to each (0.2 ml of chloroform per 1 ml of TRIzol Reagent used during the cell lysis step) and the tube was shaken vigorously. Samples were stored at RT for 2-3 minutes and subsequently centrifuged at 12,000 x g for 15 minutes at 4° C.
The RNA was precipitated from the aqueous phase by adding an equal amount of 100% ethanol. The precipitated RNA was fixed onto a Spin Cartridge, washed twice and dried. The RNA was eluted in 50 µl warm RNase-Free Water. The amount and quality of the purified RNA was measured by Nanodrop. The RNA was stored at -80° C. before transfer to Source Bioscience for Array analysis.
The expression data were downloaded into separate files for each cell line. The ‘Background corrected’ expression is the data from the “gProcessedSignal” of the arrays that is the result of the background signal extracted from the actual signal of the relevant probe. This is the most often used variable in array analysis. The background corrected signal was log2 transformed for all samples for statistical analysis. To reduce the false discovery rate in the samples, the signals that were below ‘expression level’ were removed. The ‘below expression’ level was set at 5 for the log2 transformed expression values.
Based on the expression pattern of the Control probes on each array it was decided to carry out Median Centering for all arrays before analysis to reduce the variability of the results. […]

[1] = tested on: Human trabecular meshwork cells; test: Fibronectin immunofluorescence in TGFβ2-stimulated trabecular meshwork cells; format: cell-based; conditions: TGFβ2 1.0 ng/ml + LMW-DS 4.0 µM, 72 hours
Protocol: Human trabecular meshwork cells (TMC-6590; ScienCell Research Laboratories, Carlsbad, CA) were cultured in TMC (6591; ScienCell Research Laboratories) complete medium and maintained at 37° C. in 5% CO2 until reaching 80-90% confluency. Cells were plated at densities of 5000-10000 cells per well in Greiner-Bio Cell 96 Well black Cell Culture Microplates (655090, Sigma) and left to adhere overnight. The following day cells were treated with TGFβ2 (1.0 ng/ml; Preprotech) and/or LMW-DS (4.0 µM; Tikomed AB) under serum free conditions for 72 hrs.
After 72 hrs treatments, cells were fixed using 4% PFA in PBS (28908, Thermo Fisher Scientific) for 10 minutes, washed with PBS and then washed with PBS containing saponin-based permeabilization buffer (00-8333-56, Thermo Fisher Scientific). Cells were then immunostained with anti-human Fibronectin Alexa Fluor® 488 (53-9869-82, Thermo Fisher Scientific) and nuclear stain Hoeschst 33342 (H21492, Thermo Fisher Scientific) in permeabilizing buffer in the dark for 1 hr at room temperature. […] Images were analyzed using the Yokogawa image analysis software.

[2] = pathway analysis of gene expression

sodium salt of dextran sulfate [LMW-DS]
number of differentially expressed genes (Mouse motor neurons; D0 control to D2 LMW-DS treated): 315 | number of differentially expressed genes (Mouse motor neurons; D0 control to D2 LMW-DS treated (second statement)): 425 | number of genes: abolished nutrient effect (Mouse motor neurons; no effect): 177 | number of genes: new effect induced by LMW-DS (Mouse motor neurons; no effect): 108 | number of genes: total (Mouse motor neurons; no effect): 285 | number of genes: abolished nutrient effect (Mouse motor neurons; significant downregulation): 47 | number of genes: enhanced response to nutrients (Mouse motor neurons; significant downregulation): 36 | number of genes: new effect induced by LMW-DS (Mouse motor neurons; significant downregulation): 375 | number of genes: not different from control (Mouse motor neurons; significant downregulation): 104 | number of genes: total (Mouse motor neurons; significant downregulation): 562 | number of genes: abolished nutrient effect (Mouse motor neurons; significant upregulation): 40 | number of genes: enhanced response to nutrients (Mouse motor neurons; significant upregulation): 103 | number of genes: new effect induced by LMW-DS (Mouse motor neurons; significant upregulation): 71 | number of genes: not different from control (Mouse motor neurons; significant upregulation): 75 | number of genes: total (Mouse motor neurons; significant upregulation): 289 | number of genes: abolished nutrient effect (Mouse motor neurons; total): 264 | number of genes: enhanced response to nutrients (Mouse motor neurons; total): 139 | number of genes: new effect induced by LMW-DS (Mouse motor neurons; total): 554 | number of genes: not different from control (Mouse motor neurons; total): 179 | number of genes: total (Mouse motor neurons; total): 1136 | amyloid-β production (Mouse motor neurons; [2]): preventing | inhibition of glutamate production (Mouse motor neurons; [2]): not affected | level of H2O2 (Mouse motor neurons; [2]): reduced | Activation z-score (Mouse motor neurons; upstream regulator AGT): 2.631 | Predicted activation state relative D2 control (Mouse motor neurons; upstream regulator AGT): Activated | Activation z-score (Mouse motor neurons; upstream regulator BMP4): 0.972 | Predicted activation state relative D2 control (Mouse motor neurons; upstream regulator BMP4): More activated relative to control | Activation z-score (Mouse motor neurons; upstream regulator BMP6): 0.13 | Predicted activation state relative D2 control (Mouse motor neurons; upstream regulator BMP6): More activated relative to control | Activation z-score (Mouse motor neurons; upstream regulator BMP7): 1.092 | Predicted activation state relative D2 control (Mouse motor neurons; upstream regulator BMP7): More activated relative to control | Activation z-score (Mouse motor neurons; upstream regulator INHA): 0.588 | Predicted activation state relative D2 control (Mouse motor neurons; upstream regulator INHA): More activated relative to control | fibronectin levels (quantification of fibronectin staining) [1]: 1136 ± 155
